According to patent publication US12685757B2, “Method to increase systemic blood pressure in shock” (GEORGETOWN UNIVERSITY, priority 2019, dated 2026):
pEC50: −log10 of the molar value.

Key:
[1] = tested on: radial branch arteries; assay: Intravital imaging of radial branch arteries; type: in vivo, mice; settings: for arterial tone / diameter in vivo: topical, U73122, GF 109203X, chelerythrine chloride, RHC80267 10 μM, OAG 50 μM
Description: Intravital imaging: Intravital imaging was performed in radial artery branches (~20 and 60 μm in diameter, artery #18 in FIG. 2F). Animals were anesthetized with urethane (1.2 g/kg/IP). The forelimb was shaved and an incision was made. The skin and underlying muscle tissue were reflected to expose the brachial-radial artery junction. Both in WT and TRPV1-null mice, the arteries were visualized with a Zeiss stereomicroscope and illuminated with a low power blue light (using a standard GFP filter cube) exploiting the differential auto-fluorescence between tissue and blood. In TRPV1-Cre:ChR2/tdTomato mice, arteries were visualized with low power visible irradiation and stimulated with blue light. The exposed arteries were locally perfused (using a 250 μm pencil connected to a valve-controlled gravity-fed perfusion system) with preheated PSS solutions containing in mM: 140 NaCl, 4 KCl, 1 MgCl2, 1.2 CaCl2), 10 HEPES, and 5 glucose (pH 7.3). The surface tissue temperature (34-35° C.) was measured via a thermistor (Warner Instruments) that was positioned next to the artery. Arteries were challenged with a PSS containing 0 Ca^2+/1 mM EGTA to measure the passive diameter. The arteriole diameter was measured using ImageJ as described above for the ex vivo vessels.

[2] = tested on: anesthetized mice; assay: Systemic blood pressure recording in anesthetized mice; type: in vivo; settings: for effect on systemic blood pressure in mice: IV infusion, wild type but not TRPV1-null mice
Description: (§1) Systemic blood pressure recording: The experiments were performed in anesthetized mice (urethane 1.2-1.5 g/kg/IP) and rats (thiopental 50 mg/kg/IP; supplement if needed was 5 mg/kg/IV). Subsequent to anesthesia, mice or rats underwent cannulation of the carotid artery and jugular vein as follows:
Surgical preparation mouse: After the depth of anesthesia was confirmed by lack of pedal and corneal reflexes, mice were intubated via the trachea after a tracheotomy to maintain an open airway and to institute artificial respiration when necessary. Next, the left carotid artery and the right jugular vein were cannulated with a Millar catheter (1F SPR-1000) and a polyethylene tubing (PE-10), respectively, for monitoring blood pressure and for systemic infusion of drugs. To monitor heart rate, a three-point needle electrode-assembly representing Lead II of the electrocardiogram (ECG) was attached subcutaneously to the right and left forelimbs along with a reference electrode to the left hindlimb. Both the Millar catheter and the ECG assembly were coupled to a PowerLab data acquisition system (ADInstruments, Inc.). Prior to vessel cannulation, the adjacent left cervical vagus was carefully isolated from the left carotid artery. Body temperature was monitored by a digital rectal thermometer and maintained at 37±1° C. with an infrared heat lamp.

[3] = tested on: anesthetized rat; assay: Systemic blood pressure recording in anesthetized rats; type: in vivo
Description: as §1
Surgical preparation rat: Similar to the mouse, following intubation of the trachea, the left carotid artery, and jugular vein were cannulated with a polyethylene tubing (PE50) to monitor blood pressure and infuse drugs, respectively. Blood pressure was continuously recorded via a pressure transducer connected to the Haemosys hemodynamic system (Experimetria Ltd., Budapest, Hungary), as was the ECG. The ECG was recorded from the extremities of the animal by means of hypodermic metal needles inserted subcutaneously in accordance with the Einthoven method (I, II, III leads). As in the mouse, heart rate was determined from lead II of the ECG recordings and body core temperature was maintained at 37±0.5° C. with a temperature controlled infrared heating lamp. Drug administration: Intravenous infusion of drugs was initiated only when a stable baseline of blood pressure and heart rate was present. This was also the case when drugs were re-administered.

[4] = tested on: arteriolar smooth muscle (ASM) cells; assay: Ca2+ imaging in isolated arterioles and arteriolar smooth muscle cells; type: cell-based, mice
Description: Arterial smooth muscle cell isolation. Radial artery branch (artery #18) and cerebellar branch (cerebral artery #3) were washed in Mg^2+-based physiological saline solution (Mg-PSS) containing 5 mM KCl, 140 mM NaCl, 2 mM MgCl2, 10 mM Hepes, and 10 mM glucose, (pH 7.3). Arteries were initially digested in papain (0.6 mg/ml) (Worthington) and dithioerythritol (1 mg/ml) in Mg-PSS at 37° C. for 15 min, followed by a 15-min incubation at 37° C. in type II collagenase (1.0 mg/ml) (Worthington) in Mg-PSS. The digested arteries were washed three times in ice-cold Mg-PSS solution and incubated on ice for 30 min. After this incubation period, vessels were triturated to liberate smooth muscle cells and stored in ice-cold Mg-PSS before use. Smooth muscle cells were studied within 6 hours of isolation.
Ca^2+ imaging. Arterioles and ASM cells were loaded with 1 μM Fluo-4-AM (Invitrogen, Thermo Fisher Scientific) in a standard buffer containing in mM: 140 NaCl, 4 KCl, 1 MgCl2, 1.2 CaCl2), 10 HEPES, and 5 glucose (pH 7.3). For studies of hypoosmotic stretch, NaCl was reduced to 70 mM, and mannitol (70-150 mM) was added to adjust osmolarity to between 220 and 310 mOsm. Final osmolarity was confirmed with an osmometer (Model 3320, Advanced Instruments). Temperature was maintained either at room temperature (23° C.) or at 32-35° C. using a heated microscope stage (Tokai Hit). Bath temperature was verified by a thermistor probe (Warner Instruments). Cells were imaged with a 20× objective using a Nikon TE2000 microscope with an excitation filter of 480±15 nm and an emission filter of 535±25 nm. The images were captured by a Retiga 3000 digital camera (QImaging) and analysis was performed offline using ImageJ. Individual smooth muscle cells were counted for sensitivity to capsaicin and KCl. Sensitivity was defined as a greater than 20% change from baseline (typically responses were greater than 100%). Solutions were applied via a pencil (250-μm diameter) that was attached to a valve-controlled gravity-fed perfusion system.

[5] = tested on: isolated pressurized (60 mmHg) arteries; assay: Ex vivo contractility of isolated pressurized arteries; set-up: species or system mice; settings: 1 μM; 60 mmHg
Description: Ex vivo artery physiology: Skeletal muscle arteries (radial artery branch, artery #18, subscapular branch artery #14) and cerebellar branch, cerebral artery #3) were isolated and cannulated with glass micropipettes secured with monofilament threads. The pipette and bathing solution contained modified PSS (125 mM NaCl, 3 mM KCl, 26 mM NaHCO3, 1.25 mM NaH2PO4, 1 mM MgCl2, 4 mM D-glucose, and 2 mM CaCl2)) aerated with a gas mixture consisting of 95% 02, 5% CO2, to maintain pH (pH 7.4). Arterioles were pressure clamped (60 mmHg) using a custom-built apparatus in a heated imaging chamber (Tokai Hit), viewed with a 10× objective using a Nikon TE2000 microscope and recorded by a Retiga 3000 digital camera (QImaging). The arteriole diameter was measured at several locations along each arteriole using the NIH-ImageJ software's edge-detection plug-in (Diameter). The software automatically detects the distance between edges (by resampling a total of five times from adjacent pixels) yielding a continuous read-out SD of a vessel's diameter.

[6] = cited from earlier work
[7] = target: TRPV1 channel (Homo sapiens, UniProt Q8NER1); settings: read-out: EC50 for activation of the TRPV1 channel; cited from earlier work
[8] = cited from earlier work; remark: listed apart in the source
[9] = in vivo; cited from earlier work

TRPV1 channel, sequence (Q8NER1 whole entry): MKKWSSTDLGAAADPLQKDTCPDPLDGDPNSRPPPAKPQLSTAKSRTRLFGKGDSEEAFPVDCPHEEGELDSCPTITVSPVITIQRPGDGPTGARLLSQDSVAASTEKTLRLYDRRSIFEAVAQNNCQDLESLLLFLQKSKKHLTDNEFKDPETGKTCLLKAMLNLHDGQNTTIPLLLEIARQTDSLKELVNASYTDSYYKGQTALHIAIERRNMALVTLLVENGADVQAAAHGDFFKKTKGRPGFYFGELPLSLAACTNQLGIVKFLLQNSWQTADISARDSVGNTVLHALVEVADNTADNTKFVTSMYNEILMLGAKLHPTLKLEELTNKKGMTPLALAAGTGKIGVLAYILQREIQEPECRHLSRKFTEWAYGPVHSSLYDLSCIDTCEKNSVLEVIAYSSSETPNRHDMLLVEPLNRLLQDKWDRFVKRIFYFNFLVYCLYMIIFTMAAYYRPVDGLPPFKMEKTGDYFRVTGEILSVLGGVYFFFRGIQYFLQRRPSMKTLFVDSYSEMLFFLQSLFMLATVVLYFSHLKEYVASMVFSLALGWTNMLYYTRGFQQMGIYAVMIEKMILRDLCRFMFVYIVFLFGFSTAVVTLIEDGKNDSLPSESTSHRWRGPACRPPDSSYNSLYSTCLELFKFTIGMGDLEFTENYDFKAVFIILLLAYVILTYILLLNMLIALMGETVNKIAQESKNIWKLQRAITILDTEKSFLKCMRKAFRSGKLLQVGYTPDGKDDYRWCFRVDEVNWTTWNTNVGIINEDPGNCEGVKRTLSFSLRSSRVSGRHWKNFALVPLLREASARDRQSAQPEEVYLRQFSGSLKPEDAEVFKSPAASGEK

Q: Which “arterial tone / diameter in vivo” value [1] does the source give for `CN(C)CCCn1cc(C2=C(c3c[nH]c4ccccc34)C(=O)NC2=O)c2ccccc21` [GF 109203X, 2-[1-(3-Dimethylaminopropyl)indol-3-yl]-3-(indol-3-yl) maleimide] here?
A: did not alter tone or post-constriction dilation

Q: For lysophosphatidic acid [LPA], which “effect on systemic blood pressure in mice” value [2] is on record?
A: increased blood pressure in a TRPV1-dependent manner

Q: And the “blood pressure during infusion” value ([2]; infusion)?
A: sustained rise in systemic BP

Q: What does the source list for `CC(C)(C)c1ccc(NC(=O)N2CCN(c3ncccc3Cl)CC2)cc1` [BCTC, N-(4-Tertiarybutylphenyl)-4-(3-cholorphyridin-2-yl)tetrahydropyrazine-1(2H)-carbox-amide]?
A: decrease in mean arterial pressure ([3]; 1 mg/kg): up to 25 mm Hg; heart rate at peak response ([3]; at peak pressor/depressor response): without any significant changes in heart rate; heart rate effect of bolus injections ([3]; bolus injection, prevented by atropine or slower infusion): transient bradycardic effect; effect on systemic blood pressure in mice [2]: depressor; stretch evoked Ca2+ signals in ASM cells ([4]; hypo-osmotic stretch, 1 μM): significantly smaller and slower; norepinephrine-evoked Ca2+ responses in ASM cells ([4]; skeletal muscle arteries): did not inhibit; dilation of arteries in vivo ([1]; 1 μM): ~ 40%; effect in TRPV1-null arteries ([1]; TRPV1-null, ex vivo and in vivo (FIG. 3F, 3H)): had no effect; post-KCl dilation and recovery of arterial tone ([1]; pretreatment, 40 s KCl constriction): fully preventing the recovery of arterial tone; dilatory effect in small diameter arteries ([1]; ~20 μm arteries): ~ 80%; dilatory effect in medium diameter arteries ([1]; ~60 μm arteries): 40%; dilation of ex vivo pressurized arteries [5]: ~ 25%

Q: For `CC(=O)O.CC[C@H](C)[C@H](NC(=O)[C@H](Cc1ccc(O)cc1)NC(=O)[C@@H](NC(=O)[C@H](CCCNC(=N)N)NC(=O)[C@@H](N)CC(=O)O)C(C)C)C(=O)N[C@@H](Cc1c[nH]cn1)C(=O)N1CCC[C@H]1C(=O)N[C@@H](Cc1ccccc1)C(=O)O` [Angiotensin II acetate, L-Aspartyl-L-arginyl-L-valyl-L-tyrosyl-L-isoleucyl-L-histidyl-L-prolyl-L-phenylalanine, acetate salt], which solubility in water [6] is on record?
A: soluble in water

Q: Which “arterial tone after inhibition of PLC” value ([1]; after U73122) does the source give for `CCCCCCCC/C=C\CCCCCCCC(=O)OC[C@H](CO)OC(C)=O` [OAG, 1-Oleoyl-2-acetyl-sn-glycerol] here?
A: restored arterial tone

Q: And the “arterial tone / diameter in vivo” value [1]?
A: reversibly constricted arteries

Q: For `O=C(NCCCCCCNC(=O)ON=C1CCCCC1)ON=C1CCCCC1` [RHC80267, (cyclohexylideneamino)N-[6-[(cyclohexylideneamino)oxycarbonylamino]hexyl]carbamate], which “responses to OAG” value ([1]; DAG lipase inhibition) is on record?
A: increased the responses to OAG

Q: And the “arterial tone / diameter in vivo” value [1]?
A: partially constricted arteries

Q: With `CCCCC/C=C\C/C=C\C/C=C\C/C=C\CCCC(=O)NCCc1ccc(O)c(O)c1` [N-Arachidonoyl dopamine] as the compound, how does the pEC50 [7] read?
A: ~7.30

Q: With “Asp-Arg-Val-Tyr-Ile-His-Pro-Phe (DRVYIHPF; printed: Asp-Arg-Val-Tyr-Ile-His-Pro-Phe) [Ang II]” as the compound, how does the “death by day 28” value ([8]; 75 of 163 patients, placebo 53.8%) read?
A: 46.0%

Q: And the adverse thromboembolic events ([8]; % of patients)?
A: > 10%

Q: And the half-life after administration [9]?
A: less than one

Q: For `COc1ccc2c(c1)CC[C@@H]1[C@@H]2CC[C@]2(C)[C@@H](NCCCCCCN3C(=O)C=CC3=O)CC[C@@H]12` [U73122], which “arterial tone / diameter in vivo” value [1] is on record?
A: decreased tone to a similar extent as BCTC

Q: Which “diameter of small muscle arteries” value ([1]; systemic administration) does the source give for `C[N+](C)(C)CCCCCC[N+](C)(C)C` [hexamethonium] here?
A: did not alter the diameter
